Assay results reported in patent publication US20230136569A1, “USE OF NMN TO REDUCE IMMUNODEPRESSION AND IMMUNOSENESCENCE” (NUVAMID SA, priority 2020, published 2023).

Tests used:
Assay type in all cases: in vivo
[1] = system: B cells in the bone marrow; assay: Flow cytometry of B cells in bone marrow of old mice; conditions: 500 mg/kg p.o., α-NMN 4 weeks; for number of CD38+ B cells in bone marrow: β-NMN 6 weeks (FIG. 4B); for number of CD45+ B cells in bone marrow: β-NMN 6 weeks (FIG. 5A); for number of pre-pro-B cells in bone marrow: β-NMN 6 weeks (FIG. 5B); for number of pro-B cells in bone marrow: β-NMN 6 weeks (FIG. 5C); for number of pre-B cells in bone marrow: β-NMN 6 weeks (FIG. 5D); for number of immature B cells in bone marrow: β-NMN 6 weeks (FIG. 5E); for number of B cells in bone marrow: β-NMN 6 weeks, vs non-treated old mice (FIG. 4A)
Experimental: The administering of β-NMN at 500 mg/kg, of α-NMN at 500 mg/kg and of the vehicle (water) was obtained via oral route (p.o) in the drinking water to young and old mice. The solutions were prepared by dissolving the powder of β-NMN or α-NMN in the vehicle (water). The study comprised 4 groups each having 6 mice: • Group 1: young mice (aged 10 weeks)+drinking water (vehicle) • Groupe 2: old mice (aged 15 months)+drinking water (vehicle) • Group 3: old mice (aged 15 months)+compound I-B (alpha-NMN) in the drinking water • Group 4: old mice (aged 15 months)+compound I-A (beta-NMN) in the drinking water The water consumption of the mice was assessed per cage every other day. The mice were weighed every week. The mice in Group 3 were sacrificed after 4 weeks for organ collection and characterisation of T cell function. The mice in Group 4 were sacrificed after 6 weeks for organ collection and characterisation of T cell function. On the day of sacrifice, the mice were anaesthetised with Vetoflurane (isoflurane) and blood samples were taken from the retroorbital sinus. The blood was incubated for 30 minutes at ambient temperature and then centrifuged at 1300 g for 10 minutes. After sacrificing of the mice, the spleen, thymus, and bone marrow of each animal were removed. The thymus was weighed and measured to evaluate involution thereof. For illustration purposes, photos of the thymus were taken on 5 animals per group. The thymus was divided into two parts: one part was treated with formol for histological examination. The second part was treated for characterisation of the immune cells. For characterisation of the cells, the thymus and spleen were crushed through a sieve of […] over a 50 mL tube with a syringe plunger. The bone marrow was rinsed with RPMI culture medium using a needle and syringe. The cell suspension was then centrifuged at 400 g for 5 minutes at 4° C. Lysis of the red blood cells was also performed before the cell count and use thereof for cytometry. The isolated cells of the spleen, thymus and bone marrow were marked with antibodies in accordance with the following tables to identify the proportion of effector and memory naive T and B cells. The following bone marrow cells were also examined for characterisation as a function of the combination of proteins on the surface thereof: [table] Measured parameters: The results of flow cytometry are expressed in number or as a proportion of cells per organ. The weight of the thymus is expressed in grams.

[2] = system: CD4+ T cells producing IFNγ or IL10; assay: Cytokine production by splenocytes stimulated with anti-CD3/CD28 beads for 18 h; conditions: splenocytes of treated old mice, anti-CD3/CD28 beads 18 h (FIG. 10A)
Experimental: The total splenocytes were stimulated with beads coated with anti-CD3/CD28 for 18 h. As shown in FIGS. 10A and 10B, ageing reduced the proportion of cells producing IFNγ and IL10 when simulated with beads coated with anti-CD3/CD28.

[3] = system: old mice (aged 15 months); assay: Study of the effects on immunosenescence in old mice (overall conclusion); conditions: old mice (15 months), 500 mg/kg p.o. in drinking water; concluding statement
Experimental: The administering of β-NMN at 500 mg/kg, of α-NMN at 500 mg/kg and of the vehicle (water) was obtained via oral route (p.o) in the drinking water to young and old mice. The solutions were prepared by dissolving the powder of β-NMN or α-NMN in the vehicle (water). The solution was used at ambient temperature for no more than 2 days and was freshly prepared for each new administration. The mice were weighed each week to adapt the dose of the compound to be administered. Throughout the entire phase, a standard food diet and tap water were provided ad libitum. The study comprised 4 groups each having 6 mice: • Group 1: young mice (aged 10 weeks)+drinking water (vehicle) • Groupe 2: old mice (aged 15 months)+drinking water (vehicle) • Group 3: old mice (aged 15 months)+compound I-B (alpha-NMN) in the drinking water • Group 4: old mice (aged 15 months)+compound I-A (beta-NMN) in the drinking water The water consumption of the mice was assessed per cage every other day. The mice were weighed every week. The mice in Group 3 were sacrificed after 4 weeks for organ collection and characterisation of T cell function. The mice in Group 4 were sacrificed after 6 weeks for organ collection and characterisation of T cell function. […] The thymus was weighed and measured to evaluate involution thereof. […]

Row | SMILES | number of CD38+ B cells in bone marrow [1] | number of CD45+ B cells in bone marrow [1] | number of pre-pro-B cells in bone marrow [1] | number of pro-B cells in bone marrow [1] | number of pre-B cells in bone marrow [1] | number of immature B cells in bone marrow [1] | number of B cells in bone marrow [1] | response to stimulation: proportion of cells producing IFNγ [2] | signs of immunosenescence [3]
1 | NC(=O)c1ccc[n+]([C@@H]2O[C@H](COP(=O)([O-])O)[C@@H](O)[C@H]2O)c1 (stereo in doubt) [I-A, nicotinamide mononucleotide] | restoring of the number of CD38+ B cells to the level expressed by the young mice | significant increase in the number of CD45+ B cells | increase in the number of pre-pro B cells | does not show any impact on the number of pro-B cells | increase in the number of pre-B cells | increase | significant increase in the number of B cells | lack of response | significant decrease in the signs of immunosenescence
2 | NC(=O)c1ccc[n+]([C@H]2O[C@H](COP(=O)([O-])O)[C@@H](O)[C@H]2O)c1 (stereo in doubt) [I-B, alpha nicotinamide mononucleotide] | restoring of the number of CD38+ B cells to the level expressed by the young mice | significant increase in the number of CD45+ B cells | increase in the number of pre-pro B cells | does not show any impact on the number of pro-B cells | increase in the number of pre-B cells | increase | significant increase in the number of B cells | the response to stimulation was lower | significant decrease in the signs of immunosenescence
